In patent US4791215A, “Derivatives of glutamic acid and aspartic acid” (priority 1984, dated 1988):

Key:
[1] = system: morphine analgesia; assay: Increase in analgesia of morphine, Tail Flick Test (Experiment 1); type: in vivo, rats; settings: for M (10-90) ± SE, mean percentage variation of latency: mean 10-90 min; for Power ratio with respect to morphine alone: rat, in vivo
Method in brief: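 Non-fasted male rats (150-200 g); a tail point is exposed to a 75 °C heat source and latency to tail movement recorded, 8 s cut-off. Readings taken before and 10, 20, 30, 45, 60 and 90 min after analgesic treatment; percentage variation calculated per animal.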

[2] = system: CCK-8 induced contraction of guinea pig gall bladder; assay: Anti-CCK activity on gall bladder strips in vitro; settings: CCK-8 10 ng/ml
Method in brief: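 Longitudinal guinea pig gall bladder strips in Krebs at 32 °C, gassed with O2/CO2 95:5, were contracted with 10 ng/ml CCK-8. Isometric force was recorded across several compound concentrations, and ED50 was taken as the μg/ml concentration antagonising 50% of the CCK contraction.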

[3] = system: biliary flow; assay: Biliary flow (choleretic activity); type: in vivo, rat
Procedure: The following experiment was carried out: a cannula was inserted in the bile duct of a rat anaesthetised with urethane, together with a small needle connected to a polythene tube, and the bile liquid was thus collected. The collection was carried out for one hour before the intravenous administration of the tested compounds and for a further two hours after administration, the samples collected at 30 minute intervals being weighed.
In order to prevent possible dehydration of the animals, 0.5 ml of physiological solution was administered at 30 minute intervals up to a total of 3 ml.

[4] = system: endogenous opiates analgesia; assay: Analgesic activity of endogenous opiates released by transcutaneous shock, Tail Flick Test (Experiment 3); type: in vivo, rats
Procedure: Experiment No. 3: Influence of several of the compounds of the invention on the analgesic activities of endogenous opiates released by transcutaneous shock in rats and measured by the Tail Flick Test
The method is that described by Lewis et al. J. Neurosc. 1, 358 […]. Male rats which have not fasted and have a weight of about 200 g are used.
The animals are stressed by the application of a 60 Hz-2.5 mA current to the front leg in pulses of a duration of 1 second every 5 seconds for 20 minutes.
This stress regime induces the release of endogenous opiates.

[5] = system: enkephalinamide (DALA) analgesia; assay: Potentiation of DALA (enkephalinamide) analgesia, i.c.v., Tail Flick Test (Experiment 4); type: in vivo, rats; set-up: scale not given here
Source text: Experiment No. 4: Potentiation of the analgesic activities of enkephalins induced by some of the compounds of the invention. […]

[6] = system: tolerance induced by morphine; assay: Antagonism to development of tolerance to repeated morphine HCl, Tail Flick Test (Experiment 5)
Procedure: Experiment No. 5: Antagonism of several products of the invention to the development of tolerance induced in rats by the repeated administration of morphine HCl.
Several of the compounds of the invention were examined to determine their possible capacity to antagonise the development of tolerance induced by morphine. Groups of 6 male rats having a weight of about 200-250 grams were used.
At intervals of 24 hours from the first treatment (time 0) each animal (except the control group treated physiologically) received 5 mg/kg of morphine hydrochloride i.p. together with 10 mg/kg i.p. of the compounds indicated (with the exception of the group treated solely with morphine).
The determination of the pain threshold was effected 15', 30', 45' and 60' from the treatment by the Tail Flick Test.

[7] = 10', compound 10 mg/kg i.p. + morphine 2 mg/kg
[8] = 20', compound 10 mg/kg i.p. + morphine 2 mg/kg
[9] = 30', compound 10 mg/kg i.p. + morphine 2 mg/kg
[10] = 45', compound 10 mg/kg i.p. + morphine 2 mg/kg
[11] = 60', compound 10 mg/kg i.p. + morphine 2 mg/kg
[12] = 90', compound 10 mg/kg i.p. + morphine 2 mg/kg
[13] = compound 10 mg/kg i.p. + morphine 2 mg/kg
[14] = compound 1 mg/kg iv + stress, 5'
[15] = compound 1 mg/kg iv + stress, 10'
[16] = compound 1 mg/kg iv + stress, 15'
[17] = compound 3 mg/kg iv + stress, 5'
[18] = compound 3 mg/kg iv + stress, 10'
[19] = compound 3 mg/kg iv + stress, 15'

Structure (SMILES): N#Cc1cccc(C(=O)NC(CCC(=O)N2CCCCC2)C(=O)O)c1 [Compound D-11]
- percentage variation of latency of pain sensation [1, 7]: 25.3 ± 7.0%
- percentage variation of latency of pain sensation [1, 8]: 68.3%
- percentage variation of latency of pain sensation [1, 9]: 74.8 ± 18.0%
- percentage variation of latency of pain sensation [1, 10]: 82.8 ± 17.0%
- percentage variation of latency of pain sensation [1, 11]: 86.2 ± 14.0%
- percentage variation of latency of pain sensation [1, 12]: 77.5 ± 13.0%
- M (10-90) ± SE, mean percentage variation of latency [1, 13]: 69.1%
- Power ratio with respect to morphine alone [1]: 2.32
- ED50 (concentration antagonising 50% of contracting effect of CCK-8) [2]: > 200 mg/L
- % increase in biliary flow with respect to controls ([3]; 12.5 mg/kg i.v.): +33.7%
- % increase in biliary flow with respect to controls ([3]; 25 mg/kg i.v.): +80.0%
- % increase in biliary flow with respect to controls ([3]; 50 mg/kg i.v.): +118.8%
- ED50 ([3]; Rattus norvegicus, iv, average over 2 hours, read-out: ED50 (dose causing 50% increase in biliary flow)): 18.5 mg/kg

Structure (SMILES): CCCN(CCC)C(=O)C(CCC(=O)O)NC(=O)c1ccc(C(F)(F)F)cc1 (stereo not drawn) [Compound C-39]
- percentage variation of latency of pain sensation [1, 7]: 44.9 ± 15%
- percentage variation of latency of pain sensation [1, 8]: 100.0 ± 0%
- percentage variation of latency of pain sensation [1, 9]: 93.3 ± 7%
- percentage variation of latency of pain sensation [1, 10]: 94.4 ± 6%
- percentage variation of latency of pain sensation [1, 11]: 85.6 ± 7%
- percentage variation of latency of pain sensation [1, 12]: 81.8 ± 10%
- M (10-90) ± SE, mean percentage variation of latency [1, 13]: 83.3 ± 20%
- Power ratio with respect to morphine alone [1]: 2.79
- average latency, Tail Flick [4, 14]: 6.3 ± 0.4 s
- average latency, Tail Flick [4, 15]: 5.8 ± 0.38 s
- average latency, Tail Flick [4, 16]: 4.04 ± 0.36 s
- average latency, Tail Flick [4, 17]: 7.54 ± 0.65 s
- average latency, Tail Flick [4, 18]: 5.98 ± 0.41 s
- average latency, Tail Flick [4, 19]: 5.08 ± 0.6 s

Structure (SMILES): CSCC[C@H](NC(=O)[C@H](Cc1ccccc1)NC(=O)CNC(=O)[C@@H](C)NC(=O)[C@@H](N)Cc1ccc(O)cc1)C(N)=O [DALA, D-ala-methionine-enkephalinamide, reference compound]
- analgesic activity, Tail Flick ([5]; DALA 10 μg/kg ICV alone, 10'): 21.9
- analgesic activity, Tail Flick ([5]; DALA 10 μg/kg ICV alone, 20'): 25.9
- analgesic activity, Tail Flick ([5]; DALA 10 μg/kg ICV alone, 30'): 26.2
- analgesic activity, Tail Flick ([5]; DALA 10 μg/kg ICV alone, 45'): 26.0
- analgesic activity, Tail Flick ([5]; DALA 10 μg/kg ICV alone, 60'): 7.3
- analgesic activity, Tail Flick ([5]; DALA 10 μg/kg ICV alone, 90'): 5.0
- MEAN analgesic activity, Tail Flick ([5]; DALA 10 μg/kg ICV alone): 18.7
- analgesic activity, Tail Flick ([5]; DALA 10 mg/kg (ICV) as printed, alone, 10'): 4.1
- analgesic activity, Tail Flick ([5]; DALA 10 mg/kg (ICV) as printed, alone, 20'): 6.24
- analgesic activity, Tail Flick ([5]; DALA 10 mg/kg (ICV) as printed, alone, 30'): 9.19
- analgesic activity, Tail Flick ([5]; DALA 10 mg/kg (ICV) as printed, alone, 45'): 8.29
- analgesic activity, Tail Flick ([5]; DALA 10 mg/kg (ICV) as printed, alone, 60'): 6.20
- analgesic activity, Tail Flick ([5]; DALA 10 mg/kg (ICV) as printed, alone, 90'): 10.56
- MEAN analgesic activity, Tail Flick ([5]; DALA 10 mg/kg (ICV) as printed, alone): 7.51

Structure (SMILES): CC(C)c1ccc(C(=O)NC(CCC(=O)N2CCCCC2)C(=O)O)cc1 (racemic) [Compound D-17]
- percentage variation of latency of pain sensation [1, 7]: 62.3 ± 15%
- percentage variation of latency of pain sensation [1, 8]: 92.9 ± 7%
- percentage variation of latency of pain sensation [1, 9]: 100 ± 0%
- percentage variation of latency of pain sensation [1, 10]: 100 ± 0%
- percentage variation of latency of pain sensation [1, 11]: 100 ± 0%
- percentage variation of latency of pain sensation [1, 12]: 100 ± 0%
- M (10-90) ± SE, mean percentage variation of latency [1, 13]: 92.5 ± 15%
- Power ratio with respect to morphine alone [1]: 3.10
- average latency, Tail Flick [4, 14]: 6.18 ± 0.65 s
- average latency, Tail Flick [4, 15]: 7.02 ± 0.76 s
- average latency, Tail Flick [4, 16]: 5.31 ± 0.55 s
- average latency, Tail Flick [4, 17]: 9.08 ± 0.55 s
- average latency, Tail Flick [4, 18]: 9.08 ± 0.80 s
- average latency, Tail Flick [4, 19]: 6.08 ± 0.98 s
- ED50 (concentration antagonising 50% of contracting effect of CCK-8) [2]: > 300 mg/L

Structure (SMILES): CN1CC[C@]23c4c5ccc(O)c4O[C@H]2[C@@H](O)C=C[C@H]3[C@H]1C5 [Morphine, reference compound]
- percentage variation of latency of pain sensation ([1]; 10', morphine 2 mg/kg alone): 10.8 ± 4.0%
- percentage variation of latency of pain sensation ([1]; 10', morphine 2 mg/kg alone, listed as Morphene): 10.8%
- percentage variation of latency of pain sensation ([1]; 20', morphine 2 mg/kg alone): 54.2 ± 17.0%
- percentage variation of latency of pain sensation ([1]; 20', morphine 2 mg/kg alone, listed as Morphene): 54.2 ±17%
- percentage variation of latency of pain sensation ([1]; 30', morphine 2 mg/kg alone): 46.6 ± 21.0%
- percentage variation of latency of pain sensation ([1]; 30', morphine 2 mg/kg alone, listed as Morphene): 46.6 ± 21%
- percentage variation of latency of pain sensation ([1]; 45', morphine 2 mg/kg alone): 41.7 ± 16.0%
- percentage variation of latency of pain sensation ([1]; 45', morphine 2 mg/kg alone, listed as Morphene): 41.7%
- percentage variation of latency of pain sensation ([1]; 60', morphine 2 mg/kg alone): 32.0%
- percentage variation of latency of pain sensation ([1]; 60', morphine 2 mg/kg alone, listed as Morphene): 32 ± 17%
- percentage variation of latency of pain sensation ([1]; 90', morphine 2 mg/kg alone): -6.4 ± 10.0%
- percentage variation of latency of pain sensation ([1]; 90', morphine 2 mg/kg alone, listed as Morphene): -6.4 ± 10%
- M (10-90) ± SE, mean percentage variation of latency ([1]; morphine 2 mg/kg alone): 29.8 ± 23.0%
- M (10-90) ± SE, mean percentage variation of latency ([1]; morphine 2 mg/kg alone, listed as Morphene): 29.8%
- day at which activity reaches level of inactivity (0) ([6]; from the straight lines of regression): fell to 0 on the sixth day of treatment
- percentage variation in latency time (Effect %) ([6]; morphine 5 mg/kg i.p. alone, 24 h): 42.09%
- percentage variation in latency time (Effect %) ([6]; morphine 5 mg/kg i.p. alone, 48 h): 26.54%
- percentage variation in latency time (Effect %) ([6]; morphine 5 mg/kg i.p. alone, 72 h): 19.96%
- percentage variation in latency time (Effect %) ([6]; morphine 5 mg/kg i.p. alone, 96 h): 10.79%
- percentage variation in latency time (Effect %) ([6]; morphine 5 mg/kg i.p. alone, 120 h): 4.45%
- percentage variation in latency time (Effect %) ([6]; morphine 5 mg/kg i.p. alone, 168 h): 2.12%
- percentage variation in latency time (Effect %) ([6]; morphine 5 mg/kg i.p. alone, time 0): 58.03%
- activity versus controls / morphine group during treatment ([6]; up to 168 hours): not significantly different from the control group

Structure (SMILES): CCCCN(CCCC)C(=O)CCC(NC(=O)c1ccc(C#N)cc1)C(=O)O [Compound D-8]
- percentage variation of latency of pain sensation [1, 7]: 29.0 ± 15.0%
- percentage variation of latency of pain sensation [1, 8]: 50.9%
- percentage variation of latency of pain sensation [1, 9]: 61.4 ± 22.0%
- percentage variation of latency of pain sensation [1, 10]: 57.7 ± 18.0%
- percentage variation of latency of pain sensation [1, 11]: 52.9 ± 20.0%
- percentage variation of latency of pain sensation [1, 12]: 28.3 ± 12.0%
- M (10-90) ± SE, mean percentage variation of latency [1, 13]: 46.7 ± 14.4%
- Power ratio with respect to morphine alone [1]: 1.56
- ED50 (concentration antagonising 50% of contracting effect of CCK-8) [2]: > 200 mg/L
- percentage variation in latency time (Effect %) ([6]; compound 10 mg/kg + morphine 5 mg/kg i.p., 24 h): 43.65%
- percentage variation in latency time (Effect %) ([6]; compound 10 mg/kg + morphine 5 mg/kg i.p., 48 h): 32.80%
- percentage variation in latency time (Effect %) ([6]; compound 10 mg/kg + morphine 5 mg/kg i.p., 72 h): 31.78%
- percentage variation in latency time (Effect %) ([6]; compound 10 mg/kg + morphine 5 mg/kg i.p., 96 h): 35.45%
- percentage variation in latency time (Effect %) ([6]; compound 10 mg/kg + morphine 5 mg/kg i.p., 120 h): 42.08%
- percentage variation in latency time (Effect %) ([6]; compound 10 mg/kg + morphine 5 mg/kg i.p., 144 h): 29.33%
- percentage variation in latency time (Effect %) ([6]; compound 10 mg/kg + morphine 5 mg/kg i.p., 168 h): 19.17%
- percentage variation in latency time (Effect %) ([6]; compound 10 mg/kg + morphine 5 mg/kg i.p., time 0): 47.32%

Structure (SMILES): CCCCNC(=O)C(CCC(=O)O)NC(=O)c1cccc(C#N)c1 (stereo not drawn) [Compound C-21]
- percentage variation of latency of pain sensation [1, 7]: 48.6 ± 19.0%
- percentage variation of latency of pain sensation [1, 8]: 37.4 ± 12.0%
- percentage variation of latency of pain sensation [1, 9]: 54.8 ± 19.0%
- percentage variation of latency of pain sensation [1, 10]: 44.6 ± 15.0%
- percentage variation of latency of pain sensation [1, 11]: 64.0 ± 18.0%
- percentage variation of latency of pain sensation [1, 12]: 54.9 ± 10.0%
- M (10-90) ± SE, mean percentage variation of latency [1, 13]: 50.7%
- Power ratio with respect to morphine alone [1]: 1.70
- ED50 (concentration antagonising 50% of contracting effect of CCK-8) [2]: > 200 mg/L
